Assay results published in PubChem BioAssay (NCI).
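GI50 marks 50% less growth. TGI marks complete inhibition of growth.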

Columns and labels:
Assay in all cases: NCI-60 cell line screen, 384-well format
786-0 renal = test system: 786-0 renal
A498 renal = test system: A498 renal
A549 NSCLC = test system: A549 NSCLC
ACHN renal = test system: ACHN renal
BT-549 breast = test system: BT-549 breast
CAKI-1 renal = test system: CAKI-1 renal
CCRF-CEM leukemia = test system: CCRF-CEM leukemia
COLO 205 colon = test system: COLO 205 colon
DU-145 prostate = test system: DU-145 prostate
EKVX NSCLC = test system: EKVX NSCLC
HCC-2998 colon = test system: HCC-2998 colon
HCT-116 colon = test system: HCT-116 colon
HCT-15 colon = test system: HCT-15 colon
HL-60(TB) leukemia = test system: HL-60(TB) leukemia
HOP-62 NSCLC = test system: HOP-62 NSCLC
HOP-92 NSCLC = test system: HOP-92 NSCLC
HT29 colon = test system: HT29 colon
IGROV1 ovarian = test system: IGROV1 ovarian
K-562 leukemia = test system: K-562 leukemia
KM12 colon = test system: KM12 colon
LOX IMVI melanoma = test system: LOX IMVI melanoma
M14 melanoma = test system: M14 melanoma
MALME-3M melanoma = test system: MALME-3M melanoma
MCF7 breast = test system: MCF7 breast
MDA-MB-231 breast = test system: MDA-MB-231 breast
MDA-MB-435 melanoma = test system: MDA-MB-435 melanoma
MDA-MB-468 breast = test system: MDA-MB-468 breast
MOLT-4 leukemia = test system: MOLT-4 leukemia
NCI-H226 lung = test system: NCI-H226 lung
NCI-H23 lung = test system: NCI-H23 lung
NCI-H322M lung = test system: NCI-H322M lung
NCI-H460 NSCLC = test system: NCI-H460 NSCLC
NCI-H522 lung = test system: NCI-H522 lung
NCI/ADR-RES ovarian = test system: NCI/ADR-RES ovarian
OVCAR-3 ovarian = test system: OVCAR-3 ovarian
OVCAR-4 ovarian = test system: OVCAR-4 ovarian
OVCAR-5 ovarian = test system: OVCAR-5 ovarian
OVCAR-8 ovarian = test system: OVCAR-8 ovarian
PC-3 prostate = test system: PC-3 prostate
RPMI-8226 leukemia = test system: RPMI-8226 leukemia
RXF 393 renal = test system: RXF 393 renal
SF-268 CNS = test system: SF-268 CNS
SF-295 CNS = test system: SF-295 CNS
SF-539 CNS = test system: SF-539 CNS
SK-MEL-2 melanoma = test system: SK-MEL-2 melanoma
SK-MEL-28 melanoma = test system: SK-MEL-28 melanoma
SK-MEL-5 melanoma = test system: SK-MEL-5 melanoma
SK-OV-3 ovarian = test system: SK-OV-3 ovarian
SN12C renal = test system: SN12C renal
SNB-19 CNS = test system: SNB-19 CNS
SNB-75 CNS = test system: SNB-75 CNS
SR leukemia = test system: SR leukemia
SW-620 colon = test system: SW-620 colon
T-47D breast = test system: T-47D breast
TK-10 renal = test system: TK-10 renal
U251 glioblastoma = test system: U251 glioblastoma
UACC-257 melanoma = test system: UACC-257 melanoma
UACC-62 melanoma = test system: UACC-62 melanoma
UO-31 renal = test system: UO-31 renal

In the case of `O=C1Cc2cc(C(=O)NC3C[C@H]4CC[C@@H](C3)N4S(=O)(=O)CC3CCN(CCCC(F)(F)F)CC3)c(Cl)cc2N1` (stereo partly drawn), the GI50 ([…]-0 renal) is reported as > 100 µM, the TGI (786-0 renal) is reported as > 100 µM and the GI50 (A498 renal) is reported as > 100 µM. The TGI (A498 renal) was > 100 µM, the GI50 (A549 NSCLC) was > 51 µM and the TGI (A549 NSCLC) was > 81 µM. The GI50 (ACHN renal) was > 50.1 µM, the TGI (ACHN renal) was > 77.9 µM and the GI50 (BT-549 breast) was > 49.1 µM. The TGI (BT-549 breast) was > 73.8 µM, the GI50 (CAKI-1 renal) was > 46.2 µM and the TGI (CAKI-1 renal) was > 65.5 µM. For the same compound, the GI50 (CCRF-CEM leukemia) was > 43.8 µM, the TGI (CCRF-CEM leukemia) was > 57.7 µM and the GI50 (COLO 205 colon) was > 78 µM. For the same compound, the TGI (COLO 205 colon) was > 100 µM, the GI50 (DU-145 prostate) was > 51.2 µM and the TGI (DU-145 prostate) was > 80 µM. For the same compound, the GI50 (EKVX NSCLC) was > 100 µM, the TGI (EKVX NSCLC) was > 100 µM and the GI50 (HCC-2998 colon) was > 100 µM. For the same compound, the TGI (HCC-2998 colon) was > 100 µM, the GI50 (HCT-116 colon) was > 42 µM and the TGI (HCT-116 colon) was > 56.5 µM. The GI50 (HCT-15 colon) was > 46.3 µM, the TGI (HCT-15 colon) was > 64.5 µM and the GI50 (HL-60(TB) leukemia) was > 46.1 µM. The TGI (HL-60(TB) leukemia) was > 60.4 µM, the GI50 (HOP-62 NSCLC) was > 49.6 µM and the TGI (HOP-62 NSCLC) was > 73.6 µM. For the same compound, the GI50 (HOP-92 NSCLC) was > 100 µM, the TGI (HOP-92 NSCLC) was > 100 µM and the GI50 (HT29 colon) was > 100 µM. For the same compound, the TGI (HT29 colon) was > 100 µM, the GI50 (IGROV1 ovarian) was > 57.9 µM and the TGI (IGROV1 ovarian) was > 100 µM. The GI50 (K-562 leukemia) was > 42.3 µM, the TGI (K-562 leukemia) was > 56.5 µM and the GI50 (KM12 colon) was > 100 µM. For the same compound, the TGI (KM12 colon) was > 100 µM, the GI50 (LOX IMVI melanoma) was 19.2 µM and the TGI (LOX IMVI melanoma) was 33.8 µM. For the same compound, the GI50 (M14 melanoma) was > 100 µM, the TGI (M14 melanoma) was > 100 µM and the GI50 (MALME-3M melanoma) was > 100 µM. The TGI (MALME-3M melanoma) was > 100 µM, the GI50 (MCF7 breast) was > 100 µM and the TGI (MCF7 breast) was > 100 µM. For the same compound, the GI50 (MDA-MB-231 breast) was > 100 µM, the TGI (MDA-MB-231 breast) was > 100 µM and the GI50 (MDA-MB-435 melanoma) was > 100 µM. For the same compound, the TGI (MDA-MB-435 melanoma) was > 100 µM, the GI50 (MDA-MB-468 breast) was 25.5 µM and the TGI (MDA-MB-468 breast) was 57.7 µM. The GI50 (MOLT-4 leukemia) was > 67 µM, the TGI (MOLT-4 leukemia) was > 100 µM and the GI50 (NCI-H226 lung) was > 100 µM. For the same compound, the TGI (NCI-H226 lung) was > 100 µM, the GI50 (NCI-H23 lung) was > 52.9 µM and the TGI (NCI-H23 lung) was > 71.2 µM. For the same compound, the GI50 (NCI-H322M lung) was > 100 µM, the TGI (NCI-H322M lung) was > 100 µM and the GI50 (NCI-H460 NSCLC) was > 100 µM. For the same compound, the TGI (NCI-H460 NSCLC) was > 100 µM, the GI50 (NCI-H522 lung) was > 44.7 µM and the TGI (NCI-H522 lung) was > 58.9 µM. For the same compound, the GI50 (NCI/ADR-RES ovarian) was > 100 µM, the TGI (NCI/ADR-RES ovarian) was > 100 µM and the GI50 (OVCAR-3 ovarian) was > 45 µM. The TGI (OVCAR-3 ovarian) was > 63.5 µM, the GI50 (OVCAR-4 ovarian) was > 100 µM and the TGI (OVCAR-4 ovarian) was > 100 µM. The GI50 (OVCAR-5 ovarian) was > 49.9 µM, the TGI (OVCAR-5 ovarian) was > 73.1 µM and the GI50 (OVCAR-8 ovarian) was > 44.1 µM. The TGI (OVCAR-8 ovarian) was > 61.9 µM, the GI50 (PC-3 prostate) was > 52.1 µM and the TGI (PC-3 prostate) was > 74.7 µM. For the same compound, the GI50 (RPMI-8226 leukemia) was > 45.6 µM, the TGI (RPMI-8226 leukemia) was > 59.3 µM and the GI50 (RXF 393 renal) was > 78.5 µM. For the same compound, the TGI (RXF 393 renal) was > 100 µM, the GI50 (SF-268 CNS) was > 100 µM and the TGI (SF-268 CNS) was > 100 µM. For the same compound, the GI50 (SF-295 CNS) was > 100 µM, the TGI (SF-295 CNS) was > 100 µM and the GI50 (SF-539 CNS) was > 100 µM. For the same compound, the TGI (SF-539 CNS) was > 100 µM, the GI50 (SK-MEL-2 melanoma) was > 87 µM and the TGI (SK-MEL-2 melanoma) was > 100 µM. For the same compound, the GI50 (SK-MEL-28 melanoma) was > 100 µM, the TGI (SK-MEL-28 melanoma) was > 100 µM and the GI50 (SK-MEL-5 melanoma) was > 43.5 µM. The TGI (SK-MEL-5 melanoma) was > 57.5 µM, the GI50 (SK-OV-3 ovarian) was > 47.3 µM and the TGI (SK-OV-3 ovarian) was > 72.8 µM. For the same compound, the GI50 (SN12C renal) was > 62.4 µM, the TGI (SN12C renal) was > 100 µM and the GI50 (SNB-19 CNS) was > 49.8 µM. The TGI (SNB-19 CNS) was > 74.9 µM, the GI50 (SNB-75 CNS) was > 100 µM and the TGI (SNB-75 CNS) was > 100 µM. For the same compound, the GI50 (SR leukemia) was 38.7 µM, the TGI (SR leukemia) was 99.3 µM and the GI50 (SW-620 colon) was > 58.1 µM. The TGI (SW-620 colon) was > 100 µM, the GI50 (T-47D breast) was 60.3 µM and the TGI (T-47D breast) was > 100 µM. For the same compound, the GI50 (TK-10 renal) was > 46.4 µM, the TGI (TK-10 renal) was > 65.3 µM and the GI50 (U251 glioblastoma) was > 100 µM. The TGI (U251 glioblastoma) was > 100 µM, the GI50 (UACC-257 melanoma) was > 100 µM and the TGI (UACC-257 melanoma) was > 100 µM. The GI50 (UACC-62 melanoma) was > 100 µM, the TGI (UACC-62 melanoma) was > 100 µM and the GI50 (UO-31 renal) was 23.2 µM. The TGI (UO-31 renal) was 47.5 µM.
